{"source": "patent US7199097B1", "about": "“Peptide fragments having cell death inhibitory activity” (Juridical Foundation The Chemo-Sero-Therapeutic Research …, priority 1998, dated 2007)", "type_in_all_cases": "cell-based, human", "key": {"Dami cells [1]": {"system": "Dami cells", "test": "Cell death induced by fatty acid in serum free culture of Dami cells", "settings": "for induction of cell death: 10 μM, serum free culture in the absence of selenoprotein P; for effective concentration inhibiting cell death: in the presence of 4 μM linoleic acid", "procedure": "(§1) To 1 ml Dami cells (1×10^6 cells/dish/3 ml), which can be subcultured in serum free medium SFO3 (manufactured by Sanko Jun-yaku K. K.) containing 0.05 μM 2ME and 0.1% BSA, was added 2 ml 1:2:2 mixed medium (SA medium) of RPMI 1640/D-MEM/F-12. The cells were cultured for three days and recovered for assay. The cells were washed twice with SA/0.05% fatty acid free BSA (manufactured by Wako Jun-yaku K. K.) and suspended at 3×10^4 cells/ml in the same medium containing 2 to 16 μM arachidonic acid, linoleic acid or linolenic acid. The cell suspension was added to a 96-well plate in each 198 μl for wells for sample addition or in each 100 μl for wells for serial dilution.\nTo the wells for sample addition was added each 2 μl of 100 μM assay sample and, after stirring, a serial dilution was made with the wells containing 100 μl cell suspension. The plate was incubated at 37° C. in CO2 incubator for 4 to 5 days."}, "Dami cells [2]": {"system": "Dami cells", "test": "Comparison with other antioxidants: cell death in serum free culture of Dami cells in the presence of HSA", "procedure": "It was estimated to what extent vitamin E, known as being useful as an antioxidant to lipid oxidation, and catalase, acting for removal of hydrogen peroxide, could inhibit cell death induced in the assay system of the present invention while serum free culture in the presence of HSA.\nas §1, with “added […]” for “added 2”, “with 50% PBS/SA/0.03% HSA” for “with SA/0.05% fatty acid free BSA”, “by SIGMA)” for “by Wako Jun-yaku K. K.)”, “suspended” for “suspended at 3×10^4 cells/ml”, “medium at 3×10^4 cells/ml.” for “medium containing 2 to 16 μM arachidonic acid, linoleic acid or linolenic acid.”, “each 190” for “each 198”\nTo the wells for sample addition was added each 10 μl of assay sample, i.e. 20 μM vitamin E, catalase or the selenoprotein P fragment and, after stirring, a serial dilution was made with the wells containing 100 μl cell suspension. The plate was incubated at 37° C. in CO2 incubator for 4 to 5 days followed by estimation. For estimation, a sample concentration necessary for cell death inhibition was compared to each other on Day 4 and thereafter. […] The selenoprotein P fragment could inhibit cell death up to 60 pM. From the fact that vitamin E did inhibit cell death in the assay system of the present invention, it was estimated that peroxidization of fatty acids bound to HSA (SIGMA) might be responsible for cell death induction. Moreover, it was expected that the selenoprotein P fragment, which inhibited cell death more effectively than vitamin E, would also act much more efficiently to events to which vitamin E was know to be effective."}, "Dami cells [3]": {"system": "Dami cells", "test": "Cell death-inhibitory activity in Dami cells, serum free culture with HSA, serial dilution", "source_text": "For screening factors having the cell death-inhibitory activity, a culture system needs to be established where cell death is induced. […] A diluted sample of active fractions may be added to this culture system to thereby estimate the cell death-inhibitory activity.\nBased on the assay system as described above, the present inventors have aimed at components within the living body, especially those derived from blood, and thoroughly investigated for searching the activity of interest. […] For the purpose of quantification of the cell death-inhibitory activity as used herein, dilution of not more than 100-folds is indicated as “0” while in case of dilution of more than 100-folds, a figure of said dilution per se is used for indicating the activity.\nTo 1 ml Dami cells (described in Greenberg S. M. et al., Blood, vol. 72, p. 1968–1977 (1988); 1×10^6 cells/dish/3 ml), which can be subcultured in serum free medium SFO3 (manufactured by Sanko Jun-yaku K. K.) containing 0.05 μM 2ME and 0.1% BSA, was added 2 ml 1:2:2 mixed medium (SA medium) of RPMI 1640/D-MEM/F-12. The cells were cultured for three days and recovered for assay. The cells were washed twice with 50% PBS/SA/0.03% HSA (manufactured by SIGMA) and suspended in the same medium at 3×10^4 cells/ml. The cell suspension was added to a 96-well plate in each 200 μl for wells for sample addition or in each 100 μl for wells for serial dilution. To the wells for sample addition was added 2 μl assay sample and, after stirring, a serial dilution was made with the wells containing 100 μl cell suspension. The plate was incubated at 37° C. in CO2 incubator for 4 to 5 days followed by estimation."}}, "note": "Non-standard residues stand in square brackets, D forms with d. Sec = N[C@@H](C[SeH])C(=O)O"}
{"molecule": "CCCCC/C=C\\C/C=C\\C/C=C\\C/C=C\\CCCCCC(=O)O", "note": "[adrenic acid]", "values": [{"measurement": "induction of cell death", "setting": "Dami cells [1]", "result": "induced cell death"}]}
{"molecule": "CCCCC/C=C\\C/C=C\\C/C=C\\C/C=C\\CCCC(=O)O", "note": "[arachidonic acid]", "values": [{"measurement": "induction of cell death", "setting": "Dami cells [1]", "result": "induced cell death"}]}
{"molecule": "CCCCC/C=C\\C/C=C\\C/C=C\\CCCCCCC(=O)O", "note": "[dihomo-γ-linolenic acid]", "values": [{"measurement": "induction of cell death", "setting": "Dami cells [1]", "result": "induced cell death"}]}
{"molecule": "CCCCC/C=C\\C/C=C\\CCCCCCCC(=O)O", "note": "[linoleic acid]", "values": [{"measurement": "induction of cell death", "setting": "Dami cells [1]", "result": "induced cell death"}]}
{"molecule": "catalase", "values": [{"measurement": "cell death-inhibitory activity (in words)", "setting": "Dami cells [2]; serial dilution from 20 μM sample", "result": "no cell death-inhibitory activity"}]}
{"molecule": "docosadienoic acid", "values": [{"measurement": "induction of cell death", "setting": "Dami cells [1]", "result": "induced cell death"}]}
{"molecule": "docosatrienoic acid", "values": [{"measurement": "induction of cell death", "setting": "Dami cells [1]", "result": "induced cell death"}]}
{"molecule": "eicosadienoic acid", "values": [{"measurement": "induction of cell death", "setting": "Dami cells [1]", "result": "induced cell death"}]}
{"molecule": "superoxide dismutase", "values": [{"measurement": "cell death-inhibitory activity (in words)", "setting": "Dami cells [3]; each 70 μM of the samples", "result": "some activity"}, {"measurement": "cell death-inhibitory activity relative to the peptide fragment of the present invention", "setting": "Dami cells [3]; each 70 μM of the samples", "result": "about 1/100"}, {"measurement": "cell death-inhibitory activity relative to the peptide fragment of the present invention", "setting": "Dami cells [3]; each 70 μM of the samples, listed as SOD", "result": "1/100"}]}
{"molecule": "vitamin E", "values": [{"measurement": "effective concentration inhibiting cell death", "setting": "Dami cells [1]", "result": "about 100 nM"}, {"measurement": "inhibition of cell death at 60 nM", "setting": "Dami cells [2]; 60 nM", "result": "could not"}, {"measurement": "sample concentration up to which cell death is inhibited", "setting": "Dami cells [2]; Day 4 and thereafter, serial dilution", "result": 125, "unit": "nM"}]}
{"molecule": "Full-length selenoprotein P: full-length selenoprotein P prepared from plasma with the antibody affinity column (protein, ends and bridges not checked) ESQDQSSLCKQPPAWSIRDQDPMLNSNGSVTVVALLQAS[Sec]YLCIIEASKLEDLRVKLKKEGYSNISYIVVNHQGISSRLKYTHLKNKVSEHIPVYQQEENQTDVWTLLNGSKDDFLIYDRCGRLVYHLGLPFSFLTFPYVEEAIKIAYCEKKCGNCSLTTLKDEDFCKRVSLATVDKTVETPSPHYHHEHHHNHGHQHLGSSELSENQQPGAPNAPTHPAPPGLHHHHKHKGQHRQGHPENRDMPASEDLQDLQKKLCRKRCINQLLCKLPTDSELAPRS[Sec]CCHCRHLIFEKTGSAIT[Sec]QCKENLPSLCS[Sec]QGLRAEENITESCQ[Sec]RLPPAA[Sec]QISQQLIPTEASAS[Sec]R[Sec]KNQAKK[Sec]E[Sec]PSN", "values": [{"measurement": "effective concentration inhibiting cell death", "setting": "Dami cells [1]", "result": "about 100 nM"}, {"measurement": "Specific activity", "setting": "Dami cells [3]; Table 3, activity per protein", "result": "<2500"}, {"measurement": "Activity", "setting": "Dami cells [3]; Table 3, fold dilution up to which cells survive", "result": "<100"}, {"measurement": "cell death-inhibitory activity per proteins compared with the fragment", "setting": "Dami cells [3]; purified with anti-selenoprotein P antibody column", "result": "much lower"}]}
